Target: Beta-secretase 1 (Homo sapiens, UniProt P56817)
Assay: Inhibition of human BACE1 using MOCA-SEV-NL-DAEFR-DNP-RR as substrate measured after 2 hrs by FRET assay

Sequence of Beta-secretase 1 (P56817 whole entry): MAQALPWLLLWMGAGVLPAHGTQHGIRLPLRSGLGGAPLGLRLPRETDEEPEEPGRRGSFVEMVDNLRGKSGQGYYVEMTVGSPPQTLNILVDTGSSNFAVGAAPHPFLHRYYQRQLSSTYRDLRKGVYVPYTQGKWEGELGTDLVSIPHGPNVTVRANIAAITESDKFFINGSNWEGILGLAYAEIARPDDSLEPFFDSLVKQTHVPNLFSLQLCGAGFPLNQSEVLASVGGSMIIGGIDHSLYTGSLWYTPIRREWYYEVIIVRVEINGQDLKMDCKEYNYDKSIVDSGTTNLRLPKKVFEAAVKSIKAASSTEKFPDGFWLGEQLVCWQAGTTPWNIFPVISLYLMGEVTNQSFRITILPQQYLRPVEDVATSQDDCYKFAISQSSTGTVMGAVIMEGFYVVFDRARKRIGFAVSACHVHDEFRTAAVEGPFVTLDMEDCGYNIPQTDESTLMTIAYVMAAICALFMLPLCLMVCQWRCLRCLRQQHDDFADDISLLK

Compound | IC50 [µM]
C=C1C[C@H]2[C@]3(C)CCC(=O)C(C)(C)[C@H]3CC[C@]2(C)[C@]2(C(=O)OC)C(=O)[C@@](C)(O)C(=O)[C@]12C | > 50
C=C1C[C@H]2[C@]3(C)CCC(=O)C(C)(C)[C@H]3C(=O)[C@@H](O)[C@]2(C)[C@@H](C(=O)OC)[C@]1(C)C(=O)[C@](C)(O)C(=O)OC | > 50
C=C1C[C@H]2[C@]3(C)CCC(=O)C(C)(C)[C@H]3C(=O)[C@@H](O)[C@]2(C)[C@@H]2C(=O)O[C@](C)(C(=O)OC)C(=O)[C@]12C | > 50
C=C1C[C@H]2[C@]3(C)CC[C@@H](O)C(C)(C)[C@H]3C(=O)[C@@H](O)[C@]2(C)[C@@H](C(=O)OC)[C@]1(C)C(=O)[C@](C)(O)C(=O)OC | > 50
C=C1C[C@H]2[C@]3(C)CCC(=O)C(C)(C)[C@@H]3C(=O)[C@@H](O)[C@]2(C)[C@@H](C(=O)OC)[C@]1(C)C(=O)[C@](C)(O)C(=O)OC | 31.7
C=C1C[C@@]2(O)[C@]3(C)CCC(=O)C(C)(C)C3=C(O)C(=O)[C@]2(C)[C@H]2C(=O)O[C@](C)(C(=O)OC)C(=O)[C@]12C | > 50
C=C1C[C@H]2[C@]3(C)CCC(=O)C(C)(C)[C@H]3C(=O)[C@@H](O)[C@]2(C)[C@H]2C(=O)O[C@](C)(C(=O)OC)C(=O)[C@]12C | > 50
C=C1C[C@H]2[C@]3(C)CCC(=O)C(C)(C)[C@@H]3C(=O)[C@@H](O)[C@]2(C)[C@H]2C(=O)O[C@](C)(C(=O)OC)C(=O)[C@]12C | 3.32

The next lines start with the values.

IC50 [µM] | Compound
> 50 | C=C1C[C@H]2[C@]3(C)CCC(=O)C(C)(C)[C@H]3C(=O)C[C@]2(C)[C@@H](C(=O)OC)[C@]1(C)C(=O)[C@](C)(O)C(=O)OC
> 50 | C=C1C[C@H]2[C@]3(C)CCC(=O)C(C)(C)[C@H]3C(=O)[C@@H](O)[C@]2(C)[C@H]2C(=O)O[C@](C)(C(=O)OCC)C(=O)[C@]12C
> 50 | C=C1[C@@H]2O[C@@]23[C@]2(C)CCC(=O)C(C)(C)C2=C(O)C(=O)[C@]3(C)[C@H]2C(=O)O[C@](C)(C(=O)OC)C(=O)[C@]12C
> 50 | C=C1C[C@@H]2[C@](C)(C(=O)C(O)=C3C(C)(C)C(=O)CC[C@]32C)[C@@H](C(=O)OC)[C@]1(C)C(=O)[C@](C)(O)C(=O)OC
5.85 | C=C1C[C@H]2[C@]3(C)CCC(=O)C(C)(C)[C@@H]3C(=O)[C@@H](O)[C@]2(C)[C@H]2C(=O)O[C@@H](C)C(=O)[C@]12C
> 50 | C=C1C[C@H]2[C@]3(C)CCC(=O)C(C)(C)[C@H]3C(=O)C[C@]2(C)[C@]2(C(=O)OC)C(=O)[C@H](C)OC(=O)[C@]12C
> 50 | C=C1C[C@H]2[C@]3(C)CCC(=O)C(C)(C)[C@H]3C(=O)[C@@H](O)[C@]2(C)[C@H]2C(=O)O[C@@H](C)C(=O)[C@]12C
> 50 | C=C1C[C@@H]2[C@](C)(C(=O)C(O)=C3C(C)(C)C(=O)CC[C@]32C)[C@H]2C(=O)O[C@](C)(C(=O)OC)C(=O)[C@]12C

Reference: ChEMBL document CHEMBL4196203, “BACE1 Inhibitory Meroterpenoids from Aspergillus terreus” (J Nat Prod, 2018)
